In publication PMC10375476, “Feedback Inhibition of Bacterial Nucleotidyltransferases by Rare Nucleotide L-Sugars Restricts Substrate Promiscuity” (Journal of the American Chemical Society, 2023):

Assays:
Mtb RmlA = Mtb RmlA (Mycobacterium tuberculosis, UniProt P9WH13); assay: biochemical
SALTY RmlA = SALTY RmlA (Salmonella enterica, UniProt P26393); assay: inhibition of reconstituted RmlA activity; format: biochemical
Pa RmlA = Pa RmlA (Pseudomonas aeruginosa, UniProt Q9HU22); assay: inhibition of reconstituted RmlA activity; format: biochemical
E. coli RmlA = E. coli RmlA (Escherichia coli, UniProt P37744); assay: inhibition of reconstituted RmlA activity; format: biochemical
E. coli RmlA, sequence (P37744 whole entry): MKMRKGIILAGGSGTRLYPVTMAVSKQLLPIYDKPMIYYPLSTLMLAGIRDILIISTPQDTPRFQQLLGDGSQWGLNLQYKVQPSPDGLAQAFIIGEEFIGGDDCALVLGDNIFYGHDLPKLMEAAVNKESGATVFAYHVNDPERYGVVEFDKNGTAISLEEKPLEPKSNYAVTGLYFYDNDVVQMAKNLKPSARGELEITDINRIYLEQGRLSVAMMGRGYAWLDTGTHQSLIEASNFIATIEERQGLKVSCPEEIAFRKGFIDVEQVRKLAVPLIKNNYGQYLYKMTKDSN

Mtb RmlA, sequence (P9WH13 whole entry): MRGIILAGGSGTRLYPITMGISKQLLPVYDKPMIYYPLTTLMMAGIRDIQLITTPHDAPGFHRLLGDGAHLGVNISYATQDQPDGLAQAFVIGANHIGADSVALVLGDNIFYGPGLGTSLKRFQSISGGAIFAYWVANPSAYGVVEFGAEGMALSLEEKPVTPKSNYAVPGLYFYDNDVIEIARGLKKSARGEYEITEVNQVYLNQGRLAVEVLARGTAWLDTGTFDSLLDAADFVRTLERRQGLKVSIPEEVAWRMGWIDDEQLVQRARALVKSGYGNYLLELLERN
Pa RmlA, sequence (Q9HU22 1-293): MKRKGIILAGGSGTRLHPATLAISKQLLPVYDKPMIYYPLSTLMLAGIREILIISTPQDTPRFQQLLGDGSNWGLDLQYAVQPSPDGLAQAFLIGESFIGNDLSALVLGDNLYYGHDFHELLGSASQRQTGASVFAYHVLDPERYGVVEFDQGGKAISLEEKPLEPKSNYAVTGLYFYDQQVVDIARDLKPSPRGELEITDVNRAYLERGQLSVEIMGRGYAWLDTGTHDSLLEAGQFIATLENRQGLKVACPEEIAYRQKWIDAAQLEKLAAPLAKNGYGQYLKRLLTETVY
SALTY RmlA, sequence (P26393 whole entry): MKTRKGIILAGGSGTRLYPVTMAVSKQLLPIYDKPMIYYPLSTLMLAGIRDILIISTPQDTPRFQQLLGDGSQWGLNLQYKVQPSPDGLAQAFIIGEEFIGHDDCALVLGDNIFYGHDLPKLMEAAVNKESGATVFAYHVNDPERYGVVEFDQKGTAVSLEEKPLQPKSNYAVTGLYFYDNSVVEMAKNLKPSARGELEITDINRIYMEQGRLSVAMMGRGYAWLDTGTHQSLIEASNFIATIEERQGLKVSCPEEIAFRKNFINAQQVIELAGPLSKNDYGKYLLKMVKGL

SMILES	IC50 (Mtb RmlA) [µM]	IC50 (SALTY RmlA) [µM]	IC50 (Pa RmlA) [µM]	IC50 (E. coli RmlA) [µM]
Cc1cn([C@H]2C[C@H](O)[C@@H](COP(=O)(O)OP(=O)(O)O[C@H]3O[C@@H](C)[C@H](O)[C@@H](O)[C@H]3O)O2)c(=O)[nH]c1=O [compound 1, dTDP-β-L-Rha]	65.7	109	25.1	137
Cc1cn([C@H]2C[C@H](O)[C@@H](COP(=O)(O)OP(=O)(O)O[C@H]3O[C@@H](C)[C@@H](O)[C@@H](O)[C@H]3O)O2)c(=O)[nH]c1=O [compound 2, dTDP-β-L-6dTal]			312	
Cc1cn([C@H]2C[C@H](O)[C@@H](COP(=O)(O)OP(=O)(O)O[C@@H]3O[C@@H](C)[C@H](O)[C@@H](O)[C@H]3O)O2)c(=O)[nH]c1=O [compound 10, dTDP-α-L-Rha (α-anomer 10)]	500	> 500	250	> 500
Cc1cn([C@H]2C[C@H](O)[C@@H](COP(=O)(O)OP(=O)(O)O[C@H]3O[C@@H](CO)[C@H](O)[C@@H](O)[C@H]3O)O2)c(=O)[nH]c1=O [compound 11, dTDP-β-L-Man]	458	> 500	376	> 500
C[C@@H]1O[C@H](OP(=O)(O)OP(=O)(O)OC[C@H]2O[C@@H](n3ccc(=O)[nH]c3=O)[C@H](O)[C@@H]2O)[C@H](O)[C@H](O)[C@H]1O [compound 12, UDP-β-L-Rha]			362	
